“And” between values parts separate entries of the source, which are not always exact repeats. Identical values can stand only once. Like-named read-outs stand apart in the source and are kept apart here.
Key:
P. knowlesi A1-H.1 = assay: In vitro antiplasmodial activity, P. knowlesi A1-H.1 (SYBR Green I); type: cell-based, Plasmodium knowlesi; settings: 27 h
Procedure: P. falciparum (3D7 clone) and P. knowlesi (A1-H.1 clone) were maintained in culture in RPMI 1640 supplemented with 25 mM HEPES, 25 mM NaHCO3, 10 mM D-glucose, 2 mM L-glutamine, 50 mg/L hypoxanthine, 25 mg/L gentamicin sulfate, 5 g/L Albumax II, and 10% (v/v) equine serum (Thermo Fisher Scientific, 26-050-088). The P. falciparum (3D7) and P. knowlesi (A1-H.1) parasites were grown in human A^+ red blood cells (National Health Blood and Transplant, United Kingdom). The parasites were incubated in sealed flasks at 37°C under a culture gas mixture of 96% N2, 3% CO2, and 1% O2. ([van Schalkwyk et al., 2019]). The compounds were initially dissolved in DMSO prior to diluting in RPMI. All experiments were initiated using unsynchronized parasites with both the parasitemia and hematocrit set to 1%. Drug susceptibility assays were set up in 96-well, flat-bottom microplates in a final volume of 200 μL, as described previously ([van Schalkwyk et al., 2017]). The controls were included for the background fluorescence (0% viability; parasites exposed to a supralethal 10 μM chloroquine concentration) and 100% growth (parasites in drug-free wells). The plates were incubated for one complete life cycle (27 h for P. knowlesi or 48 h for P. falciparum in vitro) at 37°C in a modular incubation chamber (Billups-Rothenburg Inc.) under the culture gas. Upon termination of the assay, the plates were stored at −20°C overnight. The SYBR Green I fluorescent method was used to measure parasite survival ([Bennett et al., 2004]; [Smilkstein et al., 2004]). After the microplates were thawed, 100 μL from each well was transferred into a duplicate plate. To this was added 100 μL of SYBR green solution [SYBR Green I (Thermo Fisher Scientific, S7563), diluted 1:5000 in a lysis buffer made of 20 mM Tris, 5 mM EDTA, 0.008% (w/v) saponin, 0.08% (v/v) Triton X-100, pH 7.5]. The plates were stored in the dark for 1 h before fluorescence was read at a 490 nm excitation wavelength and a 520 nm emission wavelength on a Spectramax M3 microplate reader (Molecular Devices) ([van Schalkwyk et al., 2017]). The background fluorescence (wells with parasites at 0% viability) was subtracted from all drug assay wells, and the parasite proliferation was determined as a percentage of the fluorescence in the drug-free control wells.

[1] = In vitro activity against T. brucei bloodstream forms (resazurin); type: cell-based, Trypanosoma brucei; settings: human; SI compared with Hep G cells (Table 1); read-out: Selectivity index (SI), T. brucei compared with cytotoxicity to Hep G cells (converted)
Procedure: (§1) Bloodstream form T. brucei (strain 427, derivative 221) was maintained in modified Iscove’s medium, as described previously ([Taylor et al., 2013]). […] The parasites were diluted to 1 × 10^4 ml^−1, the compound was added at a range of concentrations, and the plates were incubated at 37°C in 5% CO2 for 48 h. Resazurin was then added to each well, and the plates were incubated for a further 16 h. Fluorescence intensities were determined using a BMG FLUOstar Omega plate reader (excitation 545 nm, emission 590 nm), and data were analyzed using Graph Pad Prism 9.0 software. […]

[2] = test system: T. brucei bloodstream forms (strain 427, derivative 221); assay: as above; type: cell-based, Trypanosoma brucei; settings: Trypanosoma brucei, bloodstream forms, hydrochloride salts except 6 (citrate), ± SE; for IC50: 64 h, 48 h + 16 h resazurin
Procedure: as §1

P. falciparum K1 = assay: In vitro antiplasmodial activity, P. falciparum K1 (lactate dehydrogenase assay); type: cell-based, Plasmodium falciparum; settings: for IC50: Plasmodium falciparum, chloroquine-resistant strain K1, 48 h, mean ± SE, read-out: Activity against P. falciparum K1, IC50
Procedure: P. falciparum (K1 clone) was maintained in human erythrocytes prepared from the donated blood samples (blood groups unknown, Ethical Tissue, University of Bradford), suspended in the RPMI 1640 medium as previously described ([Wright et al., 2001]), except that serum was replaced with Albumax II, [5% (^w/v)]. […] Twofold serial dilutions were made in 96-well microtiter plates in duplicate, and infected erythrocytes were added to give a final volume of 100 µL with 2.5% hematocrit and 1% parasitemia. Chloroquine diphosphate was used as a positive control, and uninfected and infected erythrocytes without compounds were included in each test. The plates were placed into a modular incubator; gassed with 93% nitrogen, 3% oxygen, and 4% carbon dioxide; and incubated at 37°C for 48 h. The parasite growth was assessed by measuring lactate dehydrogenase activity as described by [Makler et al. (1993)]. The reagent used contained the following in each mL: acetylpyridine adenine dinucleotide (APAD), 0.74 mg; lithium lactate, 19.2 mg; diaphorase, 0.1 mg; Triton X-100, 2 μL; nitroblue tetrazolium, 1 mg; and phenazine ethosulphate, 0.5 mg. Fifty microliter of this reagent was added to each well and mixed; plates were incubated for 15 min at 37°C. The optical densities were read at 550 nm using an Azure 96-well microplate reader (Azure Biosystems Inc.), and % inhibition of growth was calculated by comparison with the control values. IC50 values were determined using linear regression analysis (Microsoft Excel). A minimum of three separate determinations was carried out for each compound.

[3] = test system: P. falciparum (NF54-Mal8p1.16-GFP-Luc) late-stage gametocytes; assay: microbe, parasite or virus in culture; type: cell-based, Plasmodium falciparum
Procedure: Gametocytes were produced as per [Reader et al. (2015]; [2021)] from P. falciparum NF54-Mal8p1.16-GFP-Luc ([Adjalley et al., 2011]), and each batch was validated for viability and functionality before use. […] Drug assays were set up on day 10 (representing late gametocytes, >90% stage IV/V gametocytes) using a 2–3% gametocytemia, 1.5% hematocrit culture. The drug pressure was for 48 h under stationary, hypoxic conditions (90% N2, 5% O2, and 5% CO2) at 37°C. Luciferase activity was determined in 30 μL parasite lysates by adding 30 μL luciferin substrate (Promega Luciferase Assay System) at room temperature and detection of resultant bioluminescence at an integration constant of 10 s with the GloMax®-Multi + Detection System with Instinct® Software. Methylene blue (5 μM) and an internal control (MMV390048, 5 μM) were routinely included as controls.

[4] = Plasmodium knowlesi, read-out: Activity against P. knowlesi A1-H.1, IC50, 27 h, ± SD

Structure (SMILES)	IC50 (P. knowlesi A1-H.1; [4])	selectivity ratio at 48 h [1]	IC50 [2]	IC90 [2]	IC50 (P. falciparum K1)	Selectivity index (SI), P. falciparum K1 with respect to Hep G cells (P. falciparum K1)	IC50 (P. knowlesi A1-H.1; read-out: Activity against P. knowlesi A1-H.1, IC50, ± SD)	IC50 ([3]; Plasmodium falciparum, NF54, 48 h, read-out: Activity against late-stage gametocytes IC50)	Selectivity index (SI), late-stage gametocytes with respect to Hep G cells ([3]; SI with respect to Hep G cells)
C[n+]1c2ccccc2cc2[n-]c3c(Br)cc(Br)cc3c21 [Compound 4, 7,9-Dibromocryptolepine]	1120 ± 450 nM	240	28.3 ± 0.5 nM	40.3 ± 6.1 nM	440 ± 90 nM	15.4	–	–	–
C[n+]1c2ccccc2cc2[n-]c3ccc(I)cc3c21 [Compound 5, 7-iodocryptolepine]	110 nM	82.4	81.3 ± 2.5 nM	113 ± 11 nM	160 ± 30 nM	41.9	104 ± 40 nM	–	–
C[n+]1c2ccccc2cc2[n-]c3c(I)cc(I)cc3c21 [Compound 6, 7,9-diiodocryptolepine]	1040 ± 220 nM	478	59 ± 13 nM	114 ± 11 nM	250 ± 40 nM	113	–	2200 ± 20 nM	13 and 12.8
